What is called kcat/KM is the turnover number divided by the Michaelis constant.

Molecules are shown by their SMILES.

The record followed here is patent US10184115B2, “Mutated cellobiose dehydrogenase with increased substrate specificity” (DIRECTSENS GMBH, priority 2012, dated 2019).

The target in the assay is T1, Myriococcum thermophilum cellobiose dehydrogenase (CDH, SEQ ID NO: 1) variant R622N (Thermothelomyces myriococcoides, UniProt A9XK88, R622N).
T1 sequence (A9XK88 22-828 R622N): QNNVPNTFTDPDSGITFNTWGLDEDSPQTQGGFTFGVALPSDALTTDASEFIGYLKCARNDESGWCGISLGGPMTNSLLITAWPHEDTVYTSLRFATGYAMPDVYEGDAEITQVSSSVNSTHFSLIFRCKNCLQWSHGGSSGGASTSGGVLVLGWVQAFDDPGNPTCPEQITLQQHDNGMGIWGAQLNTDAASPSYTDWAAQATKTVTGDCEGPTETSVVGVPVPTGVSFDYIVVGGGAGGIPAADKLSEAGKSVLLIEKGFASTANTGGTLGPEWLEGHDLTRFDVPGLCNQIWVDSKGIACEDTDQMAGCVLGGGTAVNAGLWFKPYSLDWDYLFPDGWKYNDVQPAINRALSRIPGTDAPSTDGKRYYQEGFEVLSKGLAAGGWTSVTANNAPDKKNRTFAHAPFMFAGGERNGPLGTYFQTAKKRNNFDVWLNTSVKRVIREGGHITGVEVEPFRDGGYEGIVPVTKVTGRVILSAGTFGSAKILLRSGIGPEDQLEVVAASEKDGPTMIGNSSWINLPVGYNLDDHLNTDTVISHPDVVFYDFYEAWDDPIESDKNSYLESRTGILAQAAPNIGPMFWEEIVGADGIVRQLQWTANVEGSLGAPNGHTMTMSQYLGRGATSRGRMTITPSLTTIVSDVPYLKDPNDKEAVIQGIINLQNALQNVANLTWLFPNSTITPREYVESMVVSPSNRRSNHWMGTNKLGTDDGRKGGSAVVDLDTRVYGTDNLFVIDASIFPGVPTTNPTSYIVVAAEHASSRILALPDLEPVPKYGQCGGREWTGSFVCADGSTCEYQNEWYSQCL
Briefly: Steady-state kinetics, DCIP assay: M. thermophilum CDH R622N. In kind it is biochemical. The conditions noted are these: apparent, pH 4.5, 30° C. The protocol:
Enzyme activity was assayed at 30° C. using either the DCIP (Karapetyan et al., 2005 Journal of Biotechnology 121: 34-48) or cytochrome c (Canevascini et al., 1991, European Journal of Biochemistry 198: 43-52) as electron acceptor. […] Stock solutions of carbohydrates used for kinetic measurements were prepared in the respective buffer and allowed to stand overnight for mutarotation, while stock solutions of electron acceptors were prepared in water and immediately used. The reaction stoichiometry is 1 for the two-electron acceptor DCIP (1 mole of DCIP reduced per mole of carbohydrate oxidized), but 2 for the one-electron acceptor cytochrome c. Kinetic constants were calculated by fitting the observed data to the Henri-Michaelis-Menten equation or to the adapted model for substrate inhibition using nonlinear least-squares regression and the program SigmaPlot (Systat Software, San Jose, Calif., USA). […]
Recombinant wild-type CDH as well as variants were produced in 1 L baffled flasks. […] Increase in activity was monitored using the DCIP and the cytochrome c enzyme assays. […]
The sample was loaded on a 20 mL PHE Sepharose FF column (HR26/20) equilibrated with 50 mM Na-acetate buffer pH 5.5 containing 20% ammonium sulfate. […] Fractions were tested for CDH activity and pooled according to the highest Reinheitszahl (RZ, calculated from the absorbance ratio 420 nm/280 nm). […]

As for `OC[C@H]1O[C@H](O[C@H]2[C@H](O)[C@@H](O)C(O)O[C@@H]2CO)[C@H](O)[C@@H](O)[C@@H]1O` (stereo partly shown) [Maltose, maltose], the kcat/KM came to 5.2 M⁻¹ s⁻¹.
